We go through 29 molecules from patent publication US6194437A (Warner-Lambert Company, priority 1999, dated 2001).

One may read the pKi as the Ki on a negative log10 scale, so that one unit is a factor of ten.

Assay [1] deals with T1, cloned human NMB-preferring receptor (BB1) (Homo sapiens, UniProt P28336).
T1 construct: expressed in transfected cells
The assay can be described thus: Receptor binding assay, cloned human NMB-preferring receptor (BB1), [125I][Tyr4]bombesin displacement. The settings on record: CHO-K1 cell membranes, 60 minutes incubation. On the procedure:
(§1) For binding experiments, cells were harvested by trypsinization, and stored frozen at -70° C. in Ham's F12 culture medium containing 5% DMSO until required. On the day of use, cells were thawed rapidly, diluted with an excess of culture medium, and centrifuged for 5 minutes at 2000 g. Cells were resuspended in 50 mM Tris-HCl assay buffer (pH 7.4 at 21° C., containing 0.02% BSA, 40 μg/ml bacitracin, 2 μg/mL chymostatin, 4 μg/mL leupeptin, and 2 μM phosphoramidon), counted, and polytronned (setting 5, 10 sec) before centrifuging for 10 minutes at 28,000 g. The final pellet was resuspended in assay buffer to a final cell concentration of 1.5×10^5 /mL. […] Radioactivity bound was determined using a gamma counter.

Assay [2] has as its target T2, cloned human GRP-preferring receptor (BB2) (Homo sapiens, UniProt P30550).
T2 construct: expressed in transfected cells
Put plainly: Receptor binding assay, cloned human GRP-preferring receptor (BB2), [125I][Tyr4]bombesin displacement. To be noted: CHO-K1 cell membranes, 90 minutes incubation. On the procedure:
as §1, with “The compounds of the invention have been evaluated in receptor binding assays which measure the affinity of the novel compounds in a cloned human NMB-preferring receptor (BB1) assay and in a cloned human GRP-preferring receptor (BB2) assay. Protocol for Binding Assays […] For” for “For”

The target in assay [3] is T3, cloned human NMB-preferring receptors expressed in CHO cells (Homo sapiens, UniProt P28336).
T3 construct: functional calcium (Fura-2) and Cytosensor acidification assays
Put plainly: Measurement of extracellular acidification (CYTOSENSOR) in CHO-NMB cells. It is filed as cell-based. The settings on record: NMB-preferring receptor (BB1), antagonist 30 minutes prior to agonist, 37° C. The text has this: The compounds of the invention have been tested in in vitro functional assays using cloned human NMB-preferring receptors expressed in CHO cells.
Protocols for functional assays:
2. Measurement of extracellular acidification (CYTOSENSOR)
This acidification rate is detected as a change in potential across a silicon light addressable sensor, during periods of media cessation (McConnell, et al., 1992).
CHO-NMB Cells seeded on polycarbonate microporous capsule cups were placed insensor chambers at 37° C. inside the microphysiometer, and maintained by a flow of nonbuffering Ham's F12 nutrient media (growth media without NaHCO3, pH 7.3-7.4) at approximately 120 μL/min. The flow was halted for 22 seconds at the end of each 2 minute repeated cycle, and the rate of acidification (μ volts/sec) measured for 15 seconds during that period.
Agonists were introduced sequentially every 28 to 30 minutes to the perfusing media, 20 seconds before flow-off periods, and removed after two rate measurements via the automatic valve-switch.
The effects of various antagonists were determined after continuous perfusion 30 minutes prior to, and throughout the application of agonists. All agents were applied at the working pH of the media.

pKi: −log10 of the molar value.

T1 sequence (P28336 whole entry): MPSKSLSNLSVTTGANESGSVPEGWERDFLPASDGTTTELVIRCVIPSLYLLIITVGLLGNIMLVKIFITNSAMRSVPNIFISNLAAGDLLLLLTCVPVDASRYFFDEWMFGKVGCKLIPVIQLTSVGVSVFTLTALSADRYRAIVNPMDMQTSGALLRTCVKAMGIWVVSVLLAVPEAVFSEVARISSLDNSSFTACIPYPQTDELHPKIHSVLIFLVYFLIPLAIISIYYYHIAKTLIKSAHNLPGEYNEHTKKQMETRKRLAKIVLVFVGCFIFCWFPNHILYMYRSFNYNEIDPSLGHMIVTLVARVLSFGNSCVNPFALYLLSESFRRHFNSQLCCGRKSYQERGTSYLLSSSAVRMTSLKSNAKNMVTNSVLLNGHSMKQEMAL
T2 sequence (P30550 whole entry): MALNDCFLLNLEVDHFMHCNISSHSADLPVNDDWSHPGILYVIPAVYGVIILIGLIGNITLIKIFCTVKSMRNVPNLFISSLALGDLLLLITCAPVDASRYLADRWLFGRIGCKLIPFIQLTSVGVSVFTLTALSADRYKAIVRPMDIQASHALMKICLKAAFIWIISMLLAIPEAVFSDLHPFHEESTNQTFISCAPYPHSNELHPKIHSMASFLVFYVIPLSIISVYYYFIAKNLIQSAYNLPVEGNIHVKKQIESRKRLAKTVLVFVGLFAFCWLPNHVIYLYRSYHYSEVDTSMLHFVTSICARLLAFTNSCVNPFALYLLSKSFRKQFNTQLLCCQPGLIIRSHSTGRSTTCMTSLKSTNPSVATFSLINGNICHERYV
T3 sequence (P28336 whole entry): as the sequence (P28336 whole entry) above

Consider `CC(C)c1cccc(C(C)C)c1NC(=O)NC(C)(Cc1c[nH]c2ccccc12)C(=O)N[C@H]1COC(C)(C)O[C@H]1c1ccccc1` (single isomer, unassigned) [Example 25], for which the pKi in assay [1] was 7.02.

On to `CC(C)c1cccc(C(C)C)c1NC(=O)N[C@](C)(Cc1c[nH]c2ccccc12)C(=O)N[C@H]1CCCc2ccccc21` [Example 2, 2-[3-(2,6-Diisopropyl-phenyl)-ureido]-3-(1H-indol-3-yl)-2-methyl-N-(1,2,3,4-tetrahydro-naphthalen-1-yl)-propionamide], for which the pKi in assay [2] was < 5.00; in assay [1], 7.85. Moreover, the “Acidification Response appKB” value in assay [3] is listed as 54.3.

As for `CC(C)c1cccc(C(C)C)c1NC(=O)N[C@](C)(Cc1c[nH]c2ccccc12)C(=O)N[C@H]1CCc2ccccc21` [Example 3, 2-[3-(2,6-Diisopropyl-phenyl)-ureido]-N-indan-1-yl-3-(1H-indol-3-yl)-2-methyl-propionamide], the values for the pKi in assay [2] and in assay [1] were < 5.00 and 6.89, respectively.

`CC(C)c1cccc(C(C)C)c1NC(=O)NC(C)(Cc1c[nH]c2ccccc12)C(=O)NCCC1CCCCC1` (stereo not drawn) [Example 4, N-(2-Cyclohexyl-ethyl)-2-[3-(2,6-diisopropyl-phenyl)-ureido]-3-(1H-indol-3-yl)-2-methyl-propionamide]: the pKi in assay [2] is < 5.00; in assay [1], 6.67.

On to `CC(C)c1cccc(C(C)C)c1NC(=O)NC(C)(Cc1c[nH]c2ccccc12)C(=O)Nc1ccccc1` (stereo not drawn) [Example 5], for which the pKi in assay [2] is < 5.00; in assay [1] it was 6.03.

Regarding `CC(C)c1cccc(C(C)C)c1NC(=O)N[C@](C)(Cc1c[nH]c2ccccc12)C(=O)N[C@H]1CCCC[C@H]1c1ccccc1` [Example 6, 2-[3-(2,6-Diisopropyl-phenyl)-ureido]-3-(1H-indol-3-yl)-2-methyl-N-(2-phenyl-cyclohexyl)-propionamide], the pKi in assay [2] was < 5.00; in assay [1] it was 6.11.

Turning to `CC(C)c1cccc(C(C)C)c1NC(=O)NC(Cc1c[nH]c2ccccc12)C(=O)N(C)CC1CCCCC1` (stereo not drawn) [Example 7, N-Cyclohexylmethyl-2-[3-(2,6-diisopropyl-phenyl)-ureido]-3-(1H-indol-3-yl)-N-methyl-propionamide], the pKi in assay [2] is < 5.00; in assay [1] it was 6.31.

As to `CC(Cc1c[nH]c2ccccc12)(NC(=O)Nc1ccc([N+](=O)[O-])cc1)C(=O)NCC1CCCCC1` (stereo not drawn) [Example 8], the values for the pKi in assay [2] and in assay [1] were 6.35 and 8.52, respectively.

As to `CC(Cc1c[nH]c2ccccc12)(NC(=O)Nc1ccc([N+](=O)[O-])cc1)C(=O)NCC1(O)CCCCC1` (stereo not drawn) [Example 9], the pKi in assay [2] was 5.95; in assay [1] it was 8.48.

Turning to `CC(C)c1cccc(C(C)C)c1NC(=O)N(C)C(Cc1c[nH]c2ccccc12)C(=O)NCC1CCCCC1` (stereo not drawn) [Example 10, N-Cyclohexylmethyl-2-[3-(2,6-diisopropyl-phenyl)-1-methyl-ureido]-3-(1H-indol-3-yl)-propionamide], the pKi is 5.84 in assay [2] and 6.12 in assay [1].

In the case of `CC(C)c1cccc(C(C)C)c1NC(=O)N[C@@](C)(Cc1c[nH]c2ccccc12)C(=O)NCC1CCCCC1` [Example 11, N-Cyclohexylmethyl-2-[3-(2,6-diisopropyl-phenyl)-ureido]-3-(1H-indol-3-yl)-2-methyl-propionamide], the pKi in assay [2] was < 5.00; in assay [1], 6.99.

As for `C[C@H](NC(=O)N[C@@](C)(Cc1c[nH]c2ccccc12)C(=O)NCC1(c2ccccn2)CCCCC1)c1ccc([N+](=O)[O-])cc1` [Example 12], the results for the pKi in assay [2] and in assay [1] were 7.22 and 9.15, respectively.

For the molecule `C[C@@](Cc1c[nH]c2ccccc12)(NC(=O)Nc1ccc(C#N)cc1)C(=O)NCC1(c2ccccn2)CCCCC1` [Example 13], the pKi is 7.42 in assay [2] and 9.52 in assay [1].

As to `C[C@@](Cc1c[nH]c2ccccc12)(NC(=O)Nc1ccc(C(F)(F)F)cc1)C(=O)NCC1(c2ccccn2)CCCCC1` [Example 15], the pKi is 6.78 in assay [2] and 8.70 in assay [1].

Regarding `CCOC(=O)c1ccc(NC(=O)N[C@@](C)(Cc2c[nH]c3ccccc23)C(=O)NCC2(c3ccccn3)CCCCC2)cc1` [Example 16], the pKi in assay [2] is 6.85; in assay [1] it was 8.52.

As for `COc1cccc(OC)c1NC(=O)NC(C)(Cc1c[nH]c2ccccc12)C(=O)NCC1CCCCC1` (stereo not drawn) [Example 17, N-Cyclohexylmethyl-2-[3-(2,6-dimethoxy-phenyl)ureido]-3-(1H-indol-3-yl)-2-methyl-propionamide], the pKi is 5.53 in assay [2] and 5.48 in assay [1].

For `CC(C)c1cccc(C(C)C)c1NC(=O)[C@H](Cc1c[nH]c2ccccc12)NC(=O)NC(c1ccccc1)C(C)(C)C` (stereo partly drawn) [Example 18, (S)-N-(2,6-Diisopropyl-phenyl)-2-[3-(2,2-dimethyl-1-phenyl-propyl)-ureido]-3-(1H-indol-3-yl)-propionamide], the pKi is < 5.00 in assay [2] and 7.60 in assay [1].

As for `CC(C)c1cccc(C(C)C)c1NC(=O)NC(C)(Cc1cccc[n+]1[O-])C(=O)NCC1(c2ccccn2)CCCCC1` (stereo not drawn) [Example 19, 2-[3-(2,6-Diisopropyl-phenyl)-ureido]-2-methyl-3-(1-oxy-pyridin-2-yl)-N-(1-pyridin-2-yl-cyclohexylmethyl)-propionamide], the pKi in assay [2] is 6.12; in assay [1], 8.52.

With `CC(C)c1cccc(C(C)C)c1NC(=O)NC(C)(Cc1ccccc1C(F)(F)F)C(=O)NCC1(c2ccccn2)CCCCC1` (stereo not drawn) [Example 20], the pKi in assay [2] is < 5.00; in assay [1] it was 7.48.

`CC(C)c1cccc(C(C)C)c1NC(=O)NC(C)(Cc1ccccc1[N+](=O)[O-])C(=O)NCC1(c2ccccn2)CCCCC1` (stereo not drawn) [Example 21]: the pKi in assay [2] was 5.59; in assay [1], 7.70.

Regarding `CC(C)c1cccc(C(C)C)c1NC(=O)NC(C)(Cc1ccccn1)C(=O)NCC1(c2ccccn2)CCCCC1` (stereo not drawn) [Example 22, 2-[3-(2,6-Diisopropyl-phenyl)-ureido]-2-methyl-3-pyridin-2-yl-N-(1-pyridin-2-yl-cyclohexylmethyl)-propionamide], the pKi in assay [2] was 6.23; in assay [1] it was 7.46.

Turning to `CC(C)c1cccc(C(C)C)c1NC(=O)NC(Cc1c[nH]cn1)C(=O)NCC1(c2ccccn2)CCCCC1` (stereo not drawn) [Example 23], the pKi in assay [2] was 5.27; in assay [1], 7.80.

As for `CC(C)c1cccc(C(C)C)c1N(C)C(=O)NC(C)(Cc1c[nH]c2ccccc12)C(=O)NCC1CCCCC1` (stereo not drawn) [Example 24], the pKi is < 5.00 in assay [2] and 6.38 in assay [1].

In the case of `Cc1nc(C2(CNC(=O)C(C)(Cc3c[nH]c4ccccc34)NC(=O)Nc3ccc([N+](=O)[O-])cc3)CCCCC2)cs1` (stereo not drawn) [Example 26], the pKi in assay [2] was 7.54; in assay [1], 9.60.

`COc1ccc(C2(CNC(=O)C(C)(Cc3c[nH]c4ccccc34)NC(=O)Nc3ccc([N+](=O)[O-])cc3)CCCCC2)nc1` (stereo not drawn) [Example 27] showed a negative logarithm of the Ki (pKi) in assay [2] of 9.00.

Regarding `CN(C)Cc1ccc(C2(CNC(=O)C(C)(Cc3c[nH]c4ccccc34)NC(=O)Nc3ccc([N+](=O)[O-])cc3)CCCCC2)cc1` (stereo not drawn) [Example 28], the pKi in assay [2] is 7.10; in assay [1], 9.09.

As for `CC(Cc1c[nH]c2ccccc12)(NC(=O)Nc1ccc([N+](=O)[O-])cc1)C(=O)NCC(c1ccccc1)N1CCCCC1` (stereo not drawn) [Example 29], the pKi in assay [2] was < 5.00; in assay [1], 8.00.

For `CC(Cc1c[nH]c2ccccc12)(NC(=O)Nc1ccc([N+](=O)[O-])cc1)C(=O)NCC1(c2c[nH]cn2)CCCCC1` (stereo not drawn) [Example 31], the pKi was 7.68 in assay [2] and 9.77 in assay [1].

In the case of `COc1ccc(C2(CNC(=O)C(C)(Cc3c[nH]c4ccccc34)NC(=O)Nc3ccc(C#N)cc3)CCCCC2)nc1` (stereo not drawn) [Example 32], the pKi in assay [2] is 7.70; in assay [1], 9.77.
